Results reported in ChEMBL document CHEMBL4765407, “Design, synthesis and high antitumor potential of new unsymmetrical bisacridine derivatives towards human solid tumors, specifically pancreatic cancers and their unique ability to stabilize DNA G-quadruplexes” (Eur J Med Chem, 2020).

How the values were obtained:
DU-145 [1] = test: Cytotoxicity against human DU-145 cells assessed as reduction in cell viability measured after 72 hrs by SRB assay; type: functional, cell-based; details: DU-145, 72 h
Quadruplex DNA [2] = test: Stabilization of 5'-FAM/3'-TAMRA labeled K-Ras G4 quadruplex DNA (unknown origin) assessed as change in melting temperature at 10 microM measured after 15 mins by FRET assay; type: nucleic-acid assay
MIA PaCa-2 [3] = test: Antitumour activity against human MIA PaCa-2 cells xenografted in Crl:Nu-Foxnl nu mouse assessed as inhibition of tumour growth at total effective dose of 12 mg/kg, ip measured on day 15; type: functional; details: MIA PaCa-2, ip, 360 h, time 15 day, read-out: TGI
ASPC1 [4] = test: Cytotoxicity against human ASPC1 cells assessed as reduction in cell viability measured after 72 hrs by SRB assay; type: functional, cell-based; details: ASPC1, 72 h
Quadruplex DNA [5] = test: Stabilization of 5'-FAM/3'-TAMRA labeled c-Myc promoter G4 quadruplex DNA FPu18 (unknown origin) assessed as change in melting temperature at 10 microM measured after 15 mins by FRET assay; type: nucleic-acid assay
HCT-116 = test: Cytotoxicity against human HCT-116 cells assessed as reduction in cell viability measured after 72 hrs by SRB assay; type: functional, cell-based; details: HCT-116, 72 h
NCI-H460 = test: Cytotoxicity against human NCI-H460 cells assessed as reduction in cell viability measured after 72 hrs by SRB assay; type: functional, cell-based; details: NCI-H460, 72 h
MIA PaCa-2 [6] = test: Cytotoxicity against human MIA PaCa-2 cells assessed as reduction in cell viability measured after 72 hrs by SRB assay; type: functional, cell-based; details: MIA PaCa-2, 72 h
BXPC-3 [7] = test: Antitumour activity against human BXPC-3 cells xenografted in Crl:Nu-Foxnl nu mouse assessed as inhibition of tumour growth at total effective dose of 16 mg/kg, iv measured on day 44; type: functional; details: BXPC-3, iv, 1056 h, time 44 day, read-out: TGI
[8] = Stabilization of ds 5'-FAM-d(TATAGCTATA-HEG-TATAGCTATA)-TAMRA-3' (unknown origin) assessed as change in melting temperature at 10 microM measured after 15 mins by FRET assay; details: Homo sapiens
BXPC-3 [9] = test: Cytotoxicity against human BXPC-3 cells assessed as reduction in cell viability measured after 72 hrs by SRB assay; type: functional, cell-based; details: BXPC-3, 72 h
[10] = Toxicity in BALB/c mouse assessed as effect on body weight at total dose of 6 mg/kg, iv administered as 3 times per week for 2 weeks measured for 71 days; type: organism-based; details: in vivo, 1704 h, time 71 day
BXPC-3 [11] = test: Antitumour activity against human BXPC-3 cells xenografted in Crl:Nu-Foxnl nu mouse assessed as inhibition of tumour growth at total effective dose of 16 mg/kg, iv measured on day 32; type: functional; details: BXPC-3, iv, 768 h, time 32 day, read-out: TGI
Capan-2 = test: Cytotoxicity against human Capan-2 cells assessed as reduction in cell viability measured after 72 hrs by SRB assay; type: functional, cell-based; details: Capan-2, 72 h
Quadruplex DNA [12] = test: Stabilization of 5'-FAM/3'-TAMRA labeled telomeric G4 quadruplex DNA F21T (unknown origin) assessed as change in melting temperature at 10 microM measured after 15 mins by FRET assay; type: nucleic-acid assay
MDA-MB-231 [13] = test: Cytotoxicity against human MDA-MB-231 cells assessed as reduction in cell viability measured after 72 hrs by SRB assay; type: functional, cell-based; details: MDA-MB-231, 72 h
[14] = Toxicity in BALB/c mouse assessed as macroscopic anatomopathological changes at total dose of 6 mg/kg, iv administered as 3 times per week for 2 weeks measured for 71 days; type: organism-based; details: in vivo, 1704 h, time 71 day
MCF7 = test: Cytotoxicity against human MCF7 cells assessed as reduction in cell viability measured after 72 hrs by SRB assay; type: functional, cell-based; details: MCF7, 72 h
MDA-MB-231 [15] = test: Antitumour activity against human MDA-MB-231 cells xenografted in Crl:Nu-Foxnl nu mouse assessed as inhibition of tumour growth at total effective dose of 32 mg/kg, iv measured on day 32; type: functional; details: MDA-MB-231, iv, 768 h, time 32 day, read-out: TGI
DU-145 [16] = test: Antitumour activity against human DU-145 cells xenografted in Crl:Nu-Foxnl nu mouse assessed as inhibition of tumour growth at total effective dose of 16 mg/kg, iv measured on day 33; type: functional; details: DU-145, iv, 792 h, time 33 day, read-out: TGI
PANC-1 [17] = test: Cytotoxicity against human PANC-1 cells assessed as reduction in cell viability measured after 72 hrs by SRB assay; type: functional, cell-based; details: PANC-1, 72 h
PANC-1 [18] = test: Antitumour activity against human PANC-1 cells xenografted in Crl:Nu-Foxnl nu mouse assessed as inhibition of tumour growth at total effective dose of 16 mg/kg, iv measured on day 33; type: functional; details: PANC-1, iv, 792 h, time 33 day, read-out: TGI
ASPC1 [19] = test: Antitumour activity against human ASPC1 cells xenografted in Crl:Nu-Foxnl nu mouse assessed as inhibition of tumour growth at total effective dose of 16 mg/kg, iv measured on day 39; type: functional; details: 936 h, time 39 day, read-out: TGI
[20] = Toxicity in BALB/c mouse assessed as effect on body weight at total dose of 120 mg/kg, iv administered as 3 times per week for 2 weeks measured for 65 days; type: organism-based; details: in vivo, 1560 h, time 65 day
PANC-1 [21] = test: Antitumour activity against human PANC-1 cells xenografted in Crl:Nu-Foxnl nu mouse assessed as inhibition of tumour growth at total effective dose of 160 mg/kg, iv measured on day 40; type: functional; details: PANC-1, iv, 960 h, time 40 day, read-out: TGI
BXPC-3 [22] = test: Antitumour activity against human BXPC-3 cells xenografted in Crl:Nu-Foxnl nu mouse assessed as inhibition of tumour growth at total effective dose of 160 mg/kg, iv measured on day 29; type: functional; details: BXPC-3, iv, 696 h, time 29 day, read-out: TGI
[23] = Toxicity in BALB/c mouse assessed as macroscopic anatomopathological changes at total dose of 120 mg/kg, iv administered as 3 times per week for 2 weeks measured for 65 days; type: organism-based; details: in vivo, 1560 h, time 65 day
PANC-1 [24] = test: Antitumour activity against human PANC-1 cells xenografted in Crl:Nu-Foxnl nu mouse assessed as inhibition of tumour growth at total effective dose of 80 mg/kg, iv measured on day 56; type: functional; details: PANC-1, iv, 1344 h, time 56 day, read-out: TGI
[25] = Toxicity in BALB/c mouse assessed as effect on body weight at 60 mg/kg, iv administered as single dose measured for 64 days; type: organism-based; details: in vivo, 1536 h, time 64 day
MIA PaCa-2 [26] = test: Antitumour activity against human MIA PaCa-2 cells xenografted in Crl:Nu-Foxnl nu mouse assessed as inhibition of tumour growth at total effective dose of 20 mg/kg, ip measured on day 33; type: functional; details: MIA PaCa-2, ip, 792 h, time 33 day, read-out: TGI
PANC-1 [27] = test: Antitumour activity against human PANC-1 cells xenografted in Crl:Nu-Foxnl nu mouse assessed as inhibition of tumour growth at total effective dose of 48 mg/kg, iv measured on day 32; type: functional; details: PANC-1, iv, 768 h, time 32 day, read-out: TGI
BXPC-3 [28] = test: Antitumour activity against human BXPC-3 cells xenografted in Crl:Nu-Foxnl nu mouse assessed as inhibition of tumour growth at total effective dose of 80 mg/kg, iv measured on day 32; type: functional; details: BXPC-3, iv, 768 h, time 32 day, read-out: TGI
[29] = Toxicity in BALB/c mouse assessed as macroscopic anatomopathological changes at 60 mg/kg, iv administered as single dose measured for 64 days; type: organism-based; details: in vivo, 1536 h, time 64 day

Structure (SMILES) | IC50 (DU-145 [1]) [nM] | ΔTm (Quadruplex DNA [2]) [°C] | IC50 (ASPC1 [4]) [nM] | ΔTm (Quadruplex DNA [5]) [°C] | IC50 (HCT-116) [nM] | IC50 (NCI-H460) [nM] | IC50 (MIA PaCa-2 [6]) [nM] | ΔTm [8] [°C] | IC50 (BXPC-3 [9]) [nM] | IC50 (Capan-2) [nM] | ΔTm (Quadruplex DNA [12]) [°C] | IC50 (MDA-MB-231 [13]) [nM] | IC50 (PANC-1 [17]) [nM] | other results
O=c1c2ccccc2n2cnc3ccc(NCCCN4CCN(CCCNc5c6ccccc6nc6cccc([N+](=O)[O-])c56)CC4)c1c32 | 22 | 27.6 | 69 | 23.3 | 25 | 15 | 39 | 5.4 | 54 | 32 | 30 | 21 | 24 | inhibition in vivo at 12 mg/kg (MIA PaCa-2 [3]): 38%; inhibition in vivo at 16 mg/kg (BXPC-3 [7]): 81%; Activity [10]: Non-Toxic; inhibition in vivo at 16 mg/kg (BXPC-3 [11]): 48%; Activity [14]: Non-Toxic; IC50 (MCF7): 82 nM; inhibition in vivo at 32 mg/kg (MDA-MB-231 [15]): 53%; inhibition in vivo at 16 mg/kg (DU-145 [16]): 61%; inhibition in vivo at 16 mg/kg (PANC-1 [18]): 80%; inhibition in vivo at 16 mg/kg (ASPC1 [19]): 29%
Cc1cc(C(N)CCN2CCN(CCCNc3ccc4ncn5c6ccccc6c(=O)c3c45)CC2)c([N+](=O)[O-])c2cc3ccccc3nc12 (stereo unspecified) | 62 | 19.9 | 240 | 27 | 45 | – | 58 | 3.6 | 351 | – | 19.2 | – | 65 | Activity [20]: Non-Toxic; inhibition in vivo at 160 mg/kg (PANC-1 [21]): 64%; inhibition in vivo at 160 mg/kg (BXPC-3 [22]): 40%; Activity [23]: Non-Toxic
Cc1cc(NCCCN(C)CCCNc2ccc3ncn4c5ccc(O)cc5c(=O)c2c34)c([N+](=O)[O-])c2cc3ccccc3nc12 | 59 | 10.7 | 152 | 27.6 | 40 | 95 | 59 | 2.8 | 169 | 52 | 18.3 | 52 | 216 | inhibition in vivo at 80 mg/kg (PANC-1 [24]): 64%; Activity [25]: Non-Toxic; inhibition in vivo at 20 mg/kg (MIA PaCa-2 [26]): 55%; inhibition in vivo at 48 mg/kg (PANC-1 [27]): 63%; inhibition in vivo at 80 mg/kg (BXPC-3 [28]): 77%; Activity [29]: Non-Toxic
